The assay deals with T1, GlCDK (cyclin-dependent kinase from G. lamblia) (Giardia duodenalis, UniProt A8BZ95).
T1 construct: gene GL50803_008037; monomer in asymmetric unit; residues Ser11-Pro308 observed
T1 sequence (A8BZ95 1-308): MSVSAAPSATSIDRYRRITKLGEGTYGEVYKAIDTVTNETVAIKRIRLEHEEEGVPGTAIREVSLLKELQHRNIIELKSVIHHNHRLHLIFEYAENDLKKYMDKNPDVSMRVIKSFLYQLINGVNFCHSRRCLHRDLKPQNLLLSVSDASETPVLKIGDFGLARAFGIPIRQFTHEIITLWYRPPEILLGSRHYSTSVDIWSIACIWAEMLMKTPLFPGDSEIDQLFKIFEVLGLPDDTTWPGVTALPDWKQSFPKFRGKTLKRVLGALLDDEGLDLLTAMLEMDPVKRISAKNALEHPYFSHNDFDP
Description: X-ray crystal structure, […] A, crystal soak. The settings on record: 1 mM AMP, 1 mM MgCl2, overnight soak; 200 mM sodium/potassium tartrate, 100 mM Bis-Tris propane, 25% PEG 3350; no cyclin; ATP-binding site.

Molecules are shown by their SMILES.

In the case of `Nc1ncnc2c1ncn2[C@@H]1O[C@H](COP(=O)(O)O)[C@@H](O)[C@H]1O` [AMP, adenosine monophosphate], the “X-ray crystal structure, 2.0 A, crystal soak” value is “Good OMIT density was observed for one AMP molecule”.
